Measured values published in patent US20230285457A1, “NANOPARTICLES FOR CANCER TREATMENT” (Universidad de Guadalajara, priority 2019, published 2023).

Assay: Quantification of the DOX encapsulation percentage in the nanoparticle
Assay type: physicochemical
Details: DOX with respect to the mass of PLGA in the nanoparticles; mean ± DE, n = 3
Protocol: To evaluate the DOX release profile contained in anti-GZMB PLGA/DOX/Ch/ICG NPs, firstly, the quantification of the encapsulation percentage in the nanoparticle was performed by dissolving the PLGA NPs pellet in acetone, quantifying the fluorescence intensity and interpolating fluorescence intensity against DOX standard; this assay was performed in fluorescence plates of 96-well Clear Bottom (Corning®—CLS3904) using excitation and emission at 488 and 560 nm, respectively.

Encapsulation percentage (w/w): 7.32 ± 1.4 percentage (w/w)
Compound: COc1cccc2c1C(=O)c1c(O)c3c(c(O)c1C2=O)C[C@@](O)(C(=O)CO)C[C@@H]3O[C@H]1C[C@H](N)[C@H](O)[C@H](C)O1 [DOX, doxorubicin]
